From patent US12228568B2, “Redox-labile fluorescent probes and their surface immobilization methods for the detection of metabolites” (The Regents of the University of California, priority 2018, dated 2025)
Where a SMILES comes first, the peptide text is derived from it. The star is where a group is joined. Biotin = O=C1N[C@H]2[C@H](CS[C@H]2CCCCC(=O)*)N1; X1 = O=C(c1c(O)ccc2c1oc1cc(=O)ccc-1[n+]2[O-])*

How the values were obtained:
GBM39 cells = assay: SCBC single cell metabolic/proteomic measurements; format: cell-based, human; settings: for glucose uptake / lactate production: erlotinib 1 μM 24 h or oligomycin A 0.1 μM 3 h vs DMSO
From the text: We then sought to adapt the lactate assay for single cell level quantitation. The surface-based lactate assay was incorporated onto the SCBC platform, which consisted of a two-layer elastomer microfluidics device coupled to a DNA barcoded glass slide.^[5, 7] The device contained 384 programmable microchambers where cells were loaded and lysed for analysis. Each microchamber was equipped with a set of DNA barcode stripes, which served as a scaffold for multiplex measurements (FIG. 18). We quantified glucose uptake, lactate production and a panel of signaling proteins from GBM39 single cells. GBM39 is a human glioblastoma cell line that harbors a mutated form of the epidermal growth factor receptor (EGFR), which drives cell proliferation. Cells were treated with 1 μM of erlotinib (EGFR inhibitor), 0.1 μM of oligomycin A (ATPase inhibitor) or DMSO (control) before analysis.
GBM 39 primary neurospheres were provided by Prof. C. David James (UCSF, San Francisco, U.S.A.) and HK301 cells were provided by Prof. Harley Kornblum (UCLA, Los Angeles, U.S.A). Cells were cultured in Dulbecco's Modified Eagle Media Nutrient Mix F-12 (DMEM/F12, Thermo) supplemented with B27 (Invitrogen), Glutamax (Thermo), heparin (1 μg/mL, Sigma), Epidermal Growth Factor (EGF, […], Sigma), Fibroblast Growth Factor (FGF, 20 ng/mL, Sigma) and 100 U/mL of penicillin and streptomycin (Thermo) in a humidified 5% CO2 (v/v) incubator at 37° C. […] For the erlotinib group, the GBM 39 cells were treated for 24 h while for the oligomycin group, the cells were treated for 3 h. Afterwards, the treated cells were processed for tests.
For SCBC measurements, the as-prepared single cells were resuspended in warm media with 10 μg/mL of Gluc-Bio at 1 M cells/mL. After incubated at 37° C. for 30 min and washed with cold PBS for 3 times, the collected cell pellet was resuspended in serum-free, biotin-free media which contained 25 U/mL lactate dehydrogenase (LDH) and 25 U/mL diaphorase. The concentration of the as-prepared single cell suspension was 1 M cells/mL.
The single cell barcode chips (SCBC) were fabricated according to well-established procedures. DNA-encoded antibody library (DEAL) was grafted onto the surface through DNA hybridization to afford capture antibody arrays. The DNA-APRz conjugate can also be incorporated onto the surface barcode through the same procedure. […] 2) the lysis buffer was prepared to contain 2 mM of NAD^+.
The SCBC readouts from the microchambers with single cells were collected to form a data table. Each row of the table corresponds to a measurement of a panel of functional proteins from a single cell and each column contains digitized fluorescence intensities that provide readout of the levels of each of the assayed proteins. […]. Protein-protein Spearman's rank correlation coefficients were calculated. Bonferroni corrected p-value was used to define the statistical significance level for the entire panel and only those significant correlations were shown in the networks. Analyte-analyte correlation networks were generated by running the calculation through all the analyte pairs in panel.

[1] = Stability of modified resazurin probes; format: physicochemical; settings: solution phase, 8 μM in PBS
Method: FIG. 7. Synthesis of the extended CRz bearing an aliphatic carboxyl group (CPRz). This carboxyl group could be readily converted to an NHS ester using standard coupling procedures. However, the ss-DNA-CPRz was not stable, and went through spontaneous self-reduction even at −20° C.
FIG. 10. Stability of Biotin-modified CRz (BRz) in solution phase. 8 μM in PBS. At 6 hrs, all the BPRz was reduced through adding 10 units of Diaphorase and 1 mM of NADH in PBS.
FIG. 11. Stability of the APRz probe (8 μM in PBS). The “reduced” signal was obtained through adding 10 units of Diaphorase and 1 mM of NADH to the APRz solution followed by a 1 hour incubation.
In order to be adapted to the SCBC platform, the probe immobilization process should be compatible with the single-stand DNA hybridization process.^[5] However, the N-oxide group on CRz confers strong redox lability. Consequently, the attempt of conjugating the amine-modified CRz to a single strand DNA (ssDNA) was unsuccessful.

[2] = Surface-based lactate assay on immobilized resazurin probes (coupled LDH/diaphorase reactions); format: biochemical; settings: surface-immobilized probe; sodium lactate, NAD+, LDH and diaphorase
From the text: We then evaluated the BRz and APRz probes for their performance in lactate detection experiments. BRz was immobilized onto the surface through ssDNA-streptavidin conjugates. Similarly, dibenzocyclooctyne-modified ssDNA enabled surface grafting of APRz molecules (FIG. 3, panel a).^[10] The resazurin-modified surfaces were exposed to a solution containing a mixture of sodium lactate, nicotinamide adenine dinucleotide (NAD+), lactate dehydrogenase (LDH) and diaphorase. In this case, the enzyme reaction cascade shown in FIG. 1, panel a translates the lactate quantity to fluorescence readouts.
A 16-well PDMS slab was placed onto a microscope glass slide, on which single strand DNA oligomers are patterned in 20 μm stripes. The volume of each well is 50 μL and it is equipped with at least eight sets of DNA barcode strips. […]
Subsequently, each well was washed with PBST for three times. At this stage, the APRz probe was immobilized to the surface and ready to use.
To obtain the standard curve for lactate quantification, 20 μL of NAD+ solution (1 mM in PBST), 1 μL of LDH solution (1 kU in ammonium sulfate buffer), 1 μL of diaphorase solution (1 kU/mL in PBS) and 20 μL of lactate solution (various concentrations in PBST) was added to each well and the device was incubated at room temperature for one hour. […] The surface fluorescence intensity was then measured by a microscanner. […]

[3] = Interference of intracellular reducing agents with APRz detection; format: biochemical; settings: Glutamine 6 mM; Glucose 6 mM; Ascorbate 100 nM; Glutathione 6 mM; APRz 8 µM in PBS
From the text: FIG. 15. Comparison of the reaction kinetics using different reducing agents.
A potential concern of employing the enzymatic mechanism for lactate quantitation was the specificity of the method. The complex intracellular contents always pose strong challenges on such redox-based methods. […] In order to evaluate the combined interference from all intracellular components, we further performed validation using GBM39 cell lysates.

SMILES	glucose uptake (GBM39 cells)	lactate production (GBM39 cells)	fluorescence increase within the assay duration [3]	reaction kinetics of APRz reduction by reducing agent [3]	also measured
C#Cc1cccc(Nc2ncnc3cc(OCCOC)c(OCCOC)cc23)c1 [erlotinib]	dramatically decreased	dramatically decreased	–	–	phosphorylation levels on EGFR as well as downstream signaling proteins (GBM39 cells; erlotinib 1 μM 24 h vs DMSO): significant down regulation
NCCCC[C@H](NC(=O)CNC(=O)CCCC[C@@H]1SC[C@@H]2NC(=O)N[C@@H]21)C(=O)NCC(=O)N[C@@H](CCCCN)C(=O)NCC(=O)N[C@@H](CCCCN)C(=O)NCC(=O)N[C@@H](CCCCNC(=O)c1c(O)ccc2c1oc1cc(=O)ccc-1[n+]2[O-])C(=O)NCC(N)=O [BRz] (Biotin-GKGKGKGK(X1)G-NH2)	–	–	–	–	stability of probe [1]: superior stability; increase of fluorescence intensity after lactate conversion [2]: unsatisfactory fluorescence increase
N[C@@H](CCC(=O)N[C@@H](CS)C(=O)NCC(=O)O)C(=O)O [glutathione]	–	–	insignificant fluorescence increase	very slow reaction kinetics	–
O=C1O[C@H]([C@@H](O)CO)C(O)=C1O [ascorbic acid]	–	–	insignificant fluorescence increase	very slow reaction kinetics	–
CC[C@H]1/C=C/C=C/C[C@@H](C)[C@H](O)[C@@](C)(O)C(=O)[C@@H](C)[C@H](O)[C@@H](C)C(=O)[C@@H](C)[C@H](O)[C@@H](C)/C=C/C(=O)O[C@@H]2[C@H](C)[C@H](CC1)O[C@]1(CC[C@H](C)[C@H](C[C@@H](C)O)O1)[C@H]2C [oligomycin, oligomycin A]	slightly higher	significantly increased	–	–	phosphoproteins downstream of the EGFR signaling pathway (GBM39 cells; oligomycin A 0.1 μM 3 h vs DMSO): suppress
